The results in this text go back to US20040071633A1, “Method for determining efficacy of reverse cholesterol transport enhancing agents” (priority 2003, published 2004).

One experiment has as its system CD14 mRNA. The experiment is described as follows: CD14 mRNA expression by real-time quantitative TaqMan PCR in THP-1 or HepG2 cells. Type of experiment: cell-based, human. How it is done:
(§1) FIGS. 5a and 5b are graphs showing that activation of LXR increases mRNA expression of ABCA1 and CD14. THP-1 or HepG2 cells (5×10^5 cells/well) were plated in 6-well plates, and mixed with buffer (open bar) or 22(R)—OH cholesterol (10 μM, closed bar). After overnight incubation (˜16 hr) at 37° C., RNA samples were prepared from the cultured cells, and mRNAs for ABCA1 (a) and CD14 (b) were measured as described in Example 4, below. Results are presented as fold of control (untreated cells), and data are shown as the means±range of duplicate determinations.
(§2) Recent studies indicate that cholesterol efflux from cells is regulated by the transcription factor, LXR, which binds regulatory oxysterols and enhances expression of ABCA1 (see Costet, P., Luo, Y., Wang, N., and Tall, A. R. (2000) J. Biol. Chem. 275, 28240-28245; and Schwartz, K., Lawn, R. M., and Wade, D. P. (2000) Biochem. Biophys. Res. Commun. 274, 794-802.). If CD14 shared with ABCA1 a role in cholesterol efflux from cells, the expression of CD14 might be regulated in parallel with ABCA1 to help achieve cholesterol homeostasis. To test this, cells were incubated with 22(R)-hydroxycholesterol (22R—OH cholesterol), a specific ligand for LXR, and expression of ABCA1 and CD14 mRNA was measured by real time PCR. […] The dose dependence for induction of ABCA1 and CD14 was roughly similar with half-maximal induction observed at ˜10 μM (not shown). Induction of ABCA1 appeared slightly more rapid than that of CD14, but both reached a plateau level by 16 hr. The magnitude of the response of CD14 to 22R—OH cholesterol was less than that observed for ABCA1, but the increase was consistently seen with either of these two cell types. […]
(§3) Real-time quantitative TaqMan PCR analysis (Heid, C. A., Stevens, J., Livak, K. J., and Williams, P. M. (1996) Genome Res. 6, 986-994) was used to determine the relative levels of CD14 and ABCA1 mRNA. […] Sequence-specific amplification was detected with an increased fluorescent signal of FAM (reporter dye) during the amplification cycle. […]
(In general: Quantitative PCR measures a nucleic acid by following its amplification.)

Another experiment relates to ABCA1 mRNA. The experiment is described as follows: ABCA1 mRNA expression by real-time quantitative TaqMan PCR in THP-1 or HepG2 cells. Type of experiment: cell-based, human. How it is done: as §1, §2, §3
Experiment [1] concerns THP-1 cells. The experiment is described as follows: sCD14 acceleration of cholesterol efflux from [3H]cholesterol-labeled THP-1 cells to apo A-I, HDL3 or HDL. To be noted: sCD14 5 μg/ml alone or apo A-I 100 μg/ml alone. The format is cell-based. As to the method: FIG. 2 is a graph showing the kinetics of cholesterol efflux by sCD14 and/or apo A-I. [^3H]cholesterol-labeled THP-1 cells were incubated with or without 5 μg/ml of sCD14 and/or 100 μg/ml of apo A-I in RPMI. Background efflux without proteins at each time was measured and subtracted from other data point. Closed circles, sCD14; open circles, apo A-I; inverted triangles, sCD14 and apo A-L. Data represents the mean of three measurements±SD. The data were repeated with similar results.
FIG. 3 is a graph showing the dose dependent additive effect of sCD14 for cholesterol efflux to apo A-I but not to HDL. [^3 H]cholesterol-labeled TBP-1 cells were incubated in buffer containing 50 μg/ml of apo A-I, HDL3 or HDL with or without the indicated concentration of sCD14 for 1 h. Open bar, without sCD14; hatched bar, 10 μg/ml sCD14; black bar, 25 μg/ml sCD14. Background efflux without proteins at each time was measured and subtracted from other data point. Asterisks show statistical significance compared to the data without sCD14: *, p<0.01; **, p<0.001. Data are representative of three independent experiments with similar results.
The following experiment was performed to determine if sCD14 could facilitate the efflux of cholesterol to its major acceptor, apo A-I (FIG. 2). […]

Experiment [2] has as its system THP-1 cells. The experiment is described as follows: cholesterol efflux from [3H]cholesterol-labeled THP-1 cells mediated by sCD14 or apo A-I. Type of experiment: cell-based. As to the method: FIGS. 1a, 1b and 1c are graphs showing the effect of sCD14 concentration on cholesterol efflux. [^3H]cholesterol-labeled THP-1 cells were incubated with the indicated concentration of sCD14 (closed circles), apo A-I (open circles) or HSA (inverted triangles) in RPMI for 30 min (a and b) or for 20 h (c). Each point represents the mean of three measurements±SD (a) or the average of duplicate samples±range (b and c). Data are representative of five independent experiments with similar results.
[^3H]cholesterol-labeled THP-1 cells were incubated with increasing concentrations of sCD14, apo A-I or the control protein, HSA, and radioactivity in the supernatant was determined. The initial rate of cholesterol efflux was explored in studies of short duration (30 min, FIG. 1a and with extended dose response in FIG. 1b). […] Because of the linear dose-dependence of sCD14-mediated efflux and because no other cholesterol acceptor was present in the incubation, these observations appear most consistent with a direct, low affinity binding of cholesterol to sCD14.
The maximal extent of cholesterol efflux mediated by apo A-I and sCD14 was explored in parallel experiments of 24 hr duration (FIG. 1c). […] However, because of the limiting concentrations of sCD14 in plasma (3-5 μg/ml) and the far greater concentration of apo A-I (˜1 mg/ml), sCD14 per se is unlikely to be a significant reservoir or destination for the cholesterol in plasma.

The mark [3] stands for this setting: THP-1 monocytes or HepG2, 10 μM, overnight (~16 hr).

For the molecule `CC(C)CC[C@@H](O)[C@@H](C)[C@H]1CC[C@H]2[C@@H]3CC=C4C[C@@H](O)CC[C@]4(C)[C@H]3CC[C@]12C` [22(R)-hydroxycholesterol], in the experiment with CD14 mRNA, the “time to plateau level of CD14 induction” value is not above 16 h. Moreover, the EC50 in the experiment on CD14 mRNA (Homo sapiens, dose dependence (not shown), read-out: half-maximal induction of CD14) was approximately 10 µM; with ABCA1 mRNA (Homo sapiens, dose dependence (not shown), read-out: half-maximal induction of ABCA1), approximately 10 µM. Besides, in the experiment on CD14 mRNA (setting [3]), the “CD14 mRNA expression” value is “consistent rise”. The “time to plateau level of ABCA1 induction” value in the experiment on ABCA1 mRNA was not above 16 h. In addition, in the experiment with ABCA1 mRNA (setting [3]), the “ABCA1 mRNA expression” value is reported as “consistent rise”.
Take “apo A-I: apolipoprotein A-I, major acceptor of cellular cholesterol”: in the experiment with THP-1 cells [1], the “cholesterol efflux by protein alone, kinetic analysis” value is reported as “larger efflux”. The “concentration at which cholesterol efflux is saturable” value with THP-1 cells [2] (30 min assays, THP-1 cells, no other cholesterol acceptor) was in the range of 10 to 20 µg/mL. In addition, the “concentration leading to near maximal cholesterol efflux” value in the experiment with THP-1 cells [2] (24 hr duration, THP-1 cells) worked out at 10 µg/mL. The “capacity to mediate cholesterol efflux relative to CD14” value in the experiment with THP-1 cells [2] (24 hr duration, comparison of dose-dependence curves) is given as 10-20 fold.
